Assays:
[1] = target: Receptor tyrosine-protein kinase erbB-4 (Homo sapiens) (UniProt Q15303); settings: Compound concentration 1000.0 nM
[2] = tested on: Epidermal growth factor receptor (Homo sapiens), P00533 [L861Q]; settings: Compound concentration 1000.0 nM
[3] = target: Platelet-derived growth factor receptor beta (Homo sapiens) (UniProt P09619); settings: Compound concentration 1000.0 nM
[4] = target: Rhodopsin kinase GRK7 (Homo sapiens) (UniProt Q8WTQ7); settings: Compound concentration 1000.0 nM
[5] = target: Serine/threonine-protein kinase Sgk3 (Homo sapiens) (UniProt Q96BR1); settings: Compound concentration 1000.0 nM
[6] = target: Ephrin type-B receptor 4 (Homo sapiens) (UniProt P54760); settings: Compound concentration 1000.0 nM
[7] = target: G protein-coupled receptor kinase 4 (Homo sapiens) (UniProt P32298); settings: Compound concentration 1000.0 nM
[8] = tested on: Tyrosine-protein kinase ABL1 (Homo sapiens), P00519 [F317I]; settings: Compound concentration 1000.0 nM
[9] = target: Aurora kinase A (Homo sapiens) (UniProt O14965); settings: Compound concentration 1000.0 nM
[10] = tested on: Epidermal growth factor receptor (Homo sapiens), P00533 [L858R,T790M]; settings: Compound concentration 1000.0 nM
[11] = tested on: Mast/stem cell growth factor receptor Kit (Homo sapiens), P10721 [V559D,V654A]; settings: Compound concentration 1000.0 nM
[12] = target: Serine/threonine-protein kinase 3 (Homo sapiens) (UniProt Q13188); settings: Compound concentration 1000.0 nM
[13] = target: Tyrosine-protein kinase ABL2 (Homo sapiens) (UniProt P42684); settings: Compound concentration 1000.0 nM
[14] = tested on: Epidermal growth factor receptor (Homo sapiens), P00533 [UNDEFINED MUTATION]; settings: Compound concentration 1000.0 nM
[15] = target: Cyclin-dependent kinase 15 (Homo sapiens) (UniProt Q96Q40); settings: Compound concentration 1000.0 nM
[16] = tested on: Serine/threonine-protein kinase B-raf (Homo sapiens), P15056 [V600E]; settings: Compound concentration 1000.0 nM
[17] = target: Serine/threonine-protein kinase 4 (Homo sapiens) (UniProt Q13043); settings: Compound concentration 1000.0 nM
[18] = target: Serine/threonine-protein kinase B-raf (Homo sapiens) (UniProt P15056); settings: Compound concentration 1000.0 nM
[19] = species on record: Rattus norvegicus; settings: Compound concentration 10.0 uM
[20] = target: Calcium/calmodulin-dependent protein kinase type II subunit gamma (Homo sapiens) (UniProt Q13555); settings: Compound concentration 1000.0 nM
[21] = target: Tyrosine-protein kinase Srms (Homo sapiens) (UniProt Q9H3Y6); settings: Compound concentration 1000.0 nM
[22] = target: Serine/threonine-protein kinase DCLK3 (Homo sapiens) (UniProt Q9C098); settings: Compound concentration 1000.0 nM
[23] = target: Calcium/calmodulin-dependent protein kinase kinase 2 (Homo sapiens) (UniProt Q96RR4); settings: Compound concentration 1000.0 nM
[24] = target: Delta-type opioid receptor (Homo sapiens) (UniProt P41143); settings: Compound concentration 10.0 uM
[25] = tested on: Receptor-type tyrosine-protein kinase FLT3 (Homo sapiens), P36888 [UNDEFINED MUTATION]; settings: Compound concentration 1000.0 nM
[26] = target: Serine/threonine-protein kinase Chk2 (Homo sapiens) (UniProt O96017); settings: Compound concentration 1000.0 nM
[27] = target: TRAF2 and NCK-interacting protein kinase (Homo sapiens) (UniProt Q9UKE5); settings: Compound concentration 1000.0 nM
[28] = target: Bone morphogenetic protein receptor type-1B (Homo sapiens) (UniProt O00238); settings: Compound concentration 1000.0 nM
[29] = target: Mitogen-activated protein kinase 6 (Homo sapiens) (UniProt Q16659); settings: Compound concentration 1000.0 nM
[30] = target: cAMP-dependent protein kinase catalytic subunit alpha (Homo sapiens) (UniProt P17612); settings: Compound concentration 1000.0 nM
[31] = target: Bone morphogenetic protein receptor type-2 (Homo sapiens) (UniProt Q13873); settings: Compound concentration 1000.0 nM
[32] = target: Tyrosine-protein kinase Fgr (Homo sapiens) (UniProt P09769); settings: Compound concentration 1000.0 nM
[33] = target: Serine/threonine-protein kinase N1 (Homo sapiens) (UniProt Q16512); settings: Compound concentration 1000.0 nM
[34] = target: Death-associated protein kinase 3 (Homo sapiens) (UniProt O43293); settings: Compound concentration 1000.0 nM
[35] = target: 5-hydroxytryptamine receptor 3A (Homo sapiens) (UniProt P46098); settings: Compound concentration 10.0 uM
[36] = target: Phosphatidylinositol 4-kinase beta (Homo sapiens) (UniProt Q9UBF8); settings: Compound concentration 1000.0 nM
[37] = target: Macrophage colony-stimulating factor 1 receptor (Homo sapiens) (UniProt P07333); settings: Compound concentration 1000.0 nM
[38] = target: Proto-oncogene tyrosine-protein kinase ROS (Homo sapiens) (UniProt P08922); settings: Compound concentration 1000.0 nM
[39] = target: cGMP-dependent protein kinase 1 (Homo sapiens) (UniProt Q13976); settings: Compound concentration 1000.0 nM
[40] = target: Mitogen-activated protein kinase 7 (Homo sapiens) (UniProt Q13164); settings: Compound concentration 1000.0 nM
[41] = target: Serine/threonine-protein kinase MRCK alpha (Homo sapiens) (UniProt Q5VT25); settings: Compound concentration 1000.0 nM
[42] = target: SRSF protein kinase 3 (Homo sapiens) (UniProt Q9UPE1); settings: Compound concentration 1000.0 nM
[43] = target: Cyclin-dependent kinase 7 (Homo sapiens) (UniProt P50613); settings: Compound concentration 1000.0 nM
[44] = target: Phosphatidylinositol 5-phosphate 4-kinase type-2 beta (Homo sapiens) (UniProt P78356); settings: Compound concentration 1000.0 nM
[45] = target: SRSF protein kinase 1 (Homo sapiens) (UniProt Q96SB4); settings: Compound concentration 1000.0 nM
[46] = target: Histamine H2 receptor (Homo sapiens) (UniProt P25021); settings: Compound concentration 10.0 uM

SRSF protein kinase 1 (Homo sapiens), sequence (Q96SB4 whole entry): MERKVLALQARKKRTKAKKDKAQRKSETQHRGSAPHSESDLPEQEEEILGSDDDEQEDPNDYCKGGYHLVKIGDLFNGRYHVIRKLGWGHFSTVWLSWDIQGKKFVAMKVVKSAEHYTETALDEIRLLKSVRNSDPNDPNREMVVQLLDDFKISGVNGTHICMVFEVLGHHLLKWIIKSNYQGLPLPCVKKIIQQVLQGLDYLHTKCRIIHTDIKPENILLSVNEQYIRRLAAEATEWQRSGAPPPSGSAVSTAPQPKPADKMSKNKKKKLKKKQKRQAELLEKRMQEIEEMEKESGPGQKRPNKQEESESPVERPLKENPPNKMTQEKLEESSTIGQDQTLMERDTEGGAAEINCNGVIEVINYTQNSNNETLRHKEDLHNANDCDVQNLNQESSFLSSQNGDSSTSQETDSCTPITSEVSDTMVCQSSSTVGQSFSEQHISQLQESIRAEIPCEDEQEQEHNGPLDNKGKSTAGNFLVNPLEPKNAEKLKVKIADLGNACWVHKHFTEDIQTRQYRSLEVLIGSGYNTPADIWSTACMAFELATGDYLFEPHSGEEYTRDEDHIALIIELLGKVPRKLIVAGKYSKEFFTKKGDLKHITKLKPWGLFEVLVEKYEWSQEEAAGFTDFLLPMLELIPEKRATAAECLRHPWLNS
Serine/threonine-protein kinase N1 (Homo sapiens), sequence (Q16512 2-942 limits assumed): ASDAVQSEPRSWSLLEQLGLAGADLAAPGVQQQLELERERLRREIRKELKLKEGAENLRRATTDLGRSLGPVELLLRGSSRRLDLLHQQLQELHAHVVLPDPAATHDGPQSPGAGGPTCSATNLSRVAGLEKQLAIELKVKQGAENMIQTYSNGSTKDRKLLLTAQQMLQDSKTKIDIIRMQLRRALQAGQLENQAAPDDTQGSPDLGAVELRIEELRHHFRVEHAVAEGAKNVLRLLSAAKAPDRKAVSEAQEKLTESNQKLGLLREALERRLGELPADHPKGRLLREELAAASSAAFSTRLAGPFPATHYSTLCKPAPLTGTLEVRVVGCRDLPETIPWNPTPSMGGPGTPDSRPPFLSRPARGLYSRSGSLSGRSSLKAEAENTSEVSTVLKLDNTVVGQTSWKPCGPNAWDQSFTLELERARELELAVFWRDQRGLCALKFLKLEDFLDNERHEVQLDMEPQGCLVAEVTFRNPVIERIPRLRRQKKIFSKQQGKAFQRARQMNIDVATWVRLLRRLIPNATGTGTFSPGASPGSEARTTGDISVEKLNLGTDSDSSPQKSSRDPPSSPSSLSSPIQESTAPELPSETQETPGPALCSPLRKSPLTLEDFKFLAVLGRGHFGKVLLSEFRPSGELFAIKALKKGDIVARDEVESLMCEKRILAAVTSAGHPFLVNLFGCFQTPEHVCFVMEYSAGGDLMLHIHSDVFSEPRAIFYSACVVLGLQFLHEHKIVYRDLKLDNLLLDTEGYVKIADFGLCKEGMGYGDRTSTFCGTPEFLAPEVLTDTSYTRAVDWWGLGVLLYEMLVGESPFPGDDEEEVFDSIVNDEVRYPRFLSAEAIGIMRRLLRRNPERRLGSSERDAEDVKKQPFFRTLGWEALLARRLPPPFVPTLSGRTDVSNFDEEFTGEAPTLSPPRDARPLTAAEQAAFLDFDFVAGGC
G protein-coupled receptor kinase 4 (Homo sapiens), sequence (P32298 whole entry, looked up): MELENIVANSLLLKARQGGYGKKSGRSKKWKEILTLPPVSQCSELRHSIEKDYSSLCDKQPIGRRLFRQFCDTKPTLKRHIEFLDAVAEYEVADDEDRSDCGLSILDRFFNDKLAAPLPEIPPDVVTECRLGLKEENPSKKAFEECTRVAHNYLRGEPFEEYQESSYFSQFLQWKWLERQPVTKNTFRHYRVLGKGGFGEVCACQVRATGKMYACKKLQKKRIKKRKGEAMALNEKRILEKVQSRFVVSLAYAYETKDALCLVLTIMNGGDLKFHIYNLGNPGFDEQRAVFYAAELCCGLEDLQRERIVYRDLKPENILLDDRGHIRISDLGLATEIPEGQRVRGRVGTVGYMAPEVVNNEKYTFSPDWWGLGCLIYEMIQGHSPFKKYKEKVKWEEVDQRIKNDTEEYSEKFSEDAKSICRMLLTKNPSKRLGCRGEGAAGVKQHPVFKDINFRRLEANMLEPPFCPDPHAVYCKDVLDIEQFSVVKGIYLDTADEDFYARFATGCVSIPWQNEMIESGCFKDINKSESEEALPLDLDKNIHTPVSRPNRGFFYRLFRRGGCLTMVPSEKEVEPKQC
cGMP-dependent protein kinase 1 (Homo sapiens), sequence (Q13976 whole entry): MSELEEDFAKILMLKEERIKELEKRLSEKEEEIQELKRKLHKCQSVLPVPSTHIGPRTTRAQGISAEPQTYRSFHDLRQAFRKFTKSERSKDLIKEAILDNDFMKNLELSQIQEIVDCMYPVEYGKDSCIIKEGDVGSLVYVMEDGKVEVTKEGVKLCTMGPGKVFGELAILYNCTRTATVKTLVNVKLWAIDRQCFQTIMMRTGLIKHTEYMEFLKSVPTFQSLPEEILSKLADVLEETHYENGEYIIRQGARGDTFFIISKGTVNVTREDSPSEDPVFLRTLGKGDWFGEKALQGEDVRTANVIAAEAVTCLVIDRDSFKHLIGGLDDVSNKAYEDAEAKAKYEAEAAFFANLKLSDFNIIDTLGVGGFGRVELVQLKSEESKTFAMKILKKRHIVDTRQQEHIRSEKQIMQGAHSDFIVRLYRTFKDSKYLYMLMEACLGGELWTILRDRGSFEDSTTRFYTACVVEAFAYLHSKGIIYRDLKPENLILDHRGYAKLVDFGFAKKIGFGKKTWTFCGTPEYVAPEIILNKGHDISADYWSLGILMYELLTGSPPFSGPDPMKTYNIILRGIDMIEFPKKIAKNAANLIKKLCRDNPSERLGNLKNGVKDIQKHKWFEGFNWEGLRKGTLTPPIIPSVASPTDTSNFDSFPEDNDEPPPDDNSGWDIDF
Macrophage colony-stimulating factor 1 receptor (Homo sapiens), sequence (P07333 whole entry): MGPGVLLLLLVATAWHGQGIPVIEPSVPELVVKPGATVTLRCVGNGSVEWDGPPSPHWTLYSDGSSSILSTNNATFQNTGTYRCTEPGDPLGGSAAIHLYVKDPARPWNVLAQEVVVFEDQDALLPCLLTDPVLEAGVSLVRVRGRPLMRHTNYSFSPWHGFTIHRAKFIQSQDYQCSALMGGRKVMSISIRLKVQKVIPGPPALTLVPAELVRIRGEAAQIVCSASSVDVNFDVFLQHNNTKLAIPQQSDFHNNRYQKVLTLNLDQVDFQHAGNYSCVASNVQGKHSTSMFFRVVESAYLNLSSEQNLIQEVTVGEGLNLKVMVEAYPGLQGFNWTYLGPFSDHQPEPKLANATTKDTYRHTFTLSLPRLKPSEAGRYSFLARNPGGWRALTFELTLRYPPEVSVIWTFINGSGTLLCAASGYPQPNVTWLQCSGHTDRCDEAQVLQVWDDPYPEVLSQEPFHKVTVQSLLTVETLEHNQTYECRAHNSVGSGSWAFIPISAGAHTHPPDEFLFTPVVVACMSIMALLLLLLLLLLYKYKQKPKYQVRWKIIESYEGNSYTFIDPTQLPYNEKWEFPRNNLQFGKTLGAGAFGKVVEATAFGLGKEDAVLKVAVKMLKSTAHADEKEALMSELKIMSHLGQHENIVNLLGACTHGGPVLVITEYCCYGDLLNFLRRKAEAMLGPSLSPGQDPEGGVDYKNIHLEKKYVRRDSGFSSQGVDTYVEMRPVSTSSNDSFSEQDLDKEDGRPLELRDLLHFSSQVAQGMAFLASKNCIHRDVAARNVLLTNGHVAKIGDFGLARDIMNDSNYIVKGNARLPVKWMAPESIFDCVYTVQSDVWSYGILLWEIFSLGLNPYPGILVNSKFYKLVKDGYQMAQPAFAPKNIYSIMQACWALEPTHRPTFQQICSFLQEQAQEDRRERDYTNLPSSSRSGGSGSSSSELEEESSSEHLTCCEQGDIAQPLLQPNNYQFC
Serine/threonine-protein kinase 3 (Homo sapiens), sequence (Q13188 whole entry): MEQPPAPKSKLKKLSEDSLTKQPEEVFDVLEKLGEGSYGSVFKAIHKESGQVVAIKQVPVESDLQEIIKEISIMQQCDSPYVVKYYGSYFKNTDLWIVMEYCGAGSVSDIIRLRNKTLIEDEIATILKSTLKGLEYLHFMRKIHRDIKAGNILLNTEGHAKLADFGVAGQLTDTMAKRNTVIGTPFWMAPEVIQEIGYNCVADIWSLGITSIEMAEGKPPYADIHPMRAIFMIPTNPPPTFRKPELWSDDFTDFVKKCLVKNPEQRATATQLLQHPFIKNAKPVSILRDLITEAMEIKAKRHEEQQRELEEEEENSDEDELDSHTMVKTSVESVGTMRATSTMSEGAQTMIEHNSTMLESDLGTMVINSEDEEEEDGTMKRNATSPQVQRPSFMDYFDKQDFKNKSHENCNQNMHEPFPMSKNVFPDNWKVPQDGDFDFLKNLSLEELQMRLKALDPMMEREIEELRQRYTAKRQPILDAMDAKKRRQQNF
Bone morphogenetic protein receptor type-1B (Homo sapiens), sequence (O00238 whole entry): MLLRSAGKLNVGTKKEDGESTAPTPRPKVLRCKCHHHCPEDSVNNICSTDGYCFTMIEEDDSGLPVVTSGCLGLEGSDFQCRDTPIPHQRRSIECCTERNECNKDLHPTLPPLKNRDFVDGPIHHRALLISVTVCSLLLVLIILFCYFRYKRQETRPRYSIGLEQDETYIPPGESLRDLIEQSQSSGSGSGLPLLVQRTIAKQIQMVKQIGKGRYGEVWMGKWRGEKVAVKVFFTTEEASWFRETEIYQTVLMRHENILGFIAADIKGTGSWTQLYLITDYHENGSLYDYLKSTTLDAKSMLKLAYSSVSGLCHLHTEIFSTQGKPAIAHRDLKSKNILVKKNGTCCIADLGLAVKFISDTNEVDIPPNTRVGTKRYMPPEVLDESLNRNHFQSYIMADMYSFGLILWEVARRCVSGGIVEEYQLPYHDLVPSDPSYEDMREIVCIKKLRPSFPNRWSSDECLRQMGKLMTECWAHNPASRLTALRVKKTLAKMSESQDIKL

N#Cc1ccc(Nc2ccc3[nH]c(=O)[nH]c3c2)c(Cl)c1
inactive: residual activity [1] 100% | residual activity [2] 100% | residual activity [3] 100% | residual activity [4] 100% | residual activity [5] 100% | residual activity [6] 98% | residual activity [7] 100% | residual activity [8] 81% | residual activity [9] 87% | residual activity [10] 79% | residual activity [11] 96% | residual activity [12] 100% | residual activity [13] 93% | residual activity [14] 100% | residual activity [15] 94% | residual activity [16] 100% | residual activity [17] 100% | residual activity [18] 100% | inhibition [19] 3.22% | residual activity [20] 78% | residual activity [21] 100% | residual activity [22] 88% | residual activity [23] 91% | inhibition [24] -0.28% | residual activity [25] 100% | residual activity [26] 100% | residual activity [27] 99% | residual activity [28] 100% | residual activity [29] 100% | residual activity [30] 96% | residual activity [31] 91% | residual activity [32] 100% | residual activity [33] 100% | residual activity [34] 92% | inhibition [35] 1.33% | residual activity [36] 100% | residual activity [37] 100% | residual activity [38] 100% | residual activity [39] 80% | residual activity [40] 100% | residual activity [41] 100% | residual activity [42] 100% | residual activity [43] 99% | residual activity [44] 74% | residual activity [45] 95% | inhibition [46] 2.26%

O=C1CCc2cc(Nc3cc(OC4CCOCC4)c([N+](=O)[O-])cc3Cl)ccc2N1
inactive: residual activity [1] 100% | residual activity [2] 100% | residual activity [3] 97% | residual activity [4] 100% | residual activity [5] 100% | residual activity [6] 100% | residual activity [7] 100% | residual activity [8] 92% | residual activity [9] 87% | residual activity [10] 76% | residual activity [11] 92% | residual activity [12] 100% | residual activity [13] 79% | residual activity [14] 100% | residual activity [15] 73% | residual activity [16] 100% | residual activity [17] 100% | residual activity [18] 100% | inhibition [19] 13.4% | residual activity [20] 100% | residual activity [21] 82% | residual activity [22] 91% | residual activity [23] 100% | inhibition [24] 3.32% | residual activity [25] 100% | residual activity [26] 69% | residual activity [27] 100% | residual activity [28] 87% | residual activity [29] 100% | residual activity [30] 96% | residual activity [31] 92% | residual activity [32] 100% | residual activity [33] 100% | residual activity [34] 91% | inhibition [35] 4.05% | residual activity [36] 100% | residual activity [37] 95% | residual activity [38] 100% | residual activity [39] 89% | residual activity [40] 100% | residual activity [41] 91% | residual activity [42] 100% | residual activity [43] 86% | residual activity [44] 100% | residual activity [45] 73% | inhibition [46] 20.6%
